Assay results published in ChEMBL document CHEMBL2074086, “Cloning, in vitro expression, and tissue distribution of a human prostaglandin transporter cDNA(hPGT)” (J Clin Invest, 1996).

molecular target: Solute carrier organic anion transporter family member 2A1 (Homo sapiens, UniProt Q92959); assay: TP_TRANSPORTER: uptake in PGT-expressing HeLa cells; type: functional, cell-based

| Structure (SMILES) | K1/2 [µM] | Activity |
| --- | --- | --- |
| CCCCC[C@H](O)/C=C/[C@H]1[C@H](O)CC(=O)[C@@H]1CCCCCCC(=O)O [ALPROSTADIL] | 0.082 |  |
| CCCCC[C@H](O)/C=C/[C@H]1[C@H](O)CC(=O)[C@@H]1C/C=C\CCCC(=O)O [DINOPROSTONE] | 0.1 |  |
| CCCCC[C@H](O)/C=C/[C@@H]1[C@@H](C/C=C\CCCC(=O)O)[C@@H](O)C[C@H]1O [DINOPROST] | 0.092 |  |
| CC#CCC(C)[C@H](O)/C=C/[C@@H]1[C@H]2C/C(=C/CCCC(=O)O)C[C@H]2C[C@H]1O (stereo partly specified) [ILOPROST] |  | is not a substrate [-] |
| CCCCC[C@H](O)/C=C/[C@H]1C(=O)C[C@H](O)[C@@H]1C/C=C\CCCC(=O)O [PROSTAGLANDIN D2] | 0.083 |  |
| CCCCC[C@H](O)/C=C/[C@H]1OC(O)C[C@H](O)[C@@H]1C/C=C\CCCC(=O)O (stereo partly specified) [THROMBOXANE B2] | 0.182 |  |
